Biological target: T1, Ski7C (Saccharomyces cerevisiae, UniProt Q08491)
T1 construct: gene SKI7; C-terminal GTPase-like region, residues 254-747; N-terminal thioredoxin tag cut with PreScission; expressed in E. coli BL21; one molecule per asymmetric unit (SeMet form for phasing)
T1 sequence (Q08491 254-747): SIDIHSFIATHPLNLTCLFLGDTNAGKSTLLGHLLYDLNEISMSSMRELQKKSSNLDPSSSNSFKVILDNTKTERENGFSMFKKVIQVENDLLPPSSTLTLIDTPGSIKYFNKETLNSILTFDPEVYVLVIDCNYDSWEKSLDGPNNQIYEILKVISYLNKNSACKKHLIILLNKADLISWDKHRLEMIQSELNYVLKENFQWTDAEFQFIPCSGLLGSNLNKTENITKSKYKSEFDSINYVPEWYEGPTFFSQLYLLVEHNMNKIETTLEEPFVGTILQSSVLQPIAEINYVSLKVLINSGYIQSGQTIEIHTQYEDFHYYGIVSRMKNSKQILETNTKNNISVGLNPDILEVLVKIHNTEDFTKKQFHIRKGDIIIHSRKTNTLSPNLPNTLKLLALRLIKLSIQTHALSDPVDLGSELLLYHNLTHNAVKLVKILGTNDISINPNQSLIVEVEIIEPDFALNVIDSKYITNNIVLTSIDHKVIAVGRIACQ
Assay: thermal shift (Thermofluor)
Type: binding
Conditions: nucleotide analog added during alkaline phosphatase treatment; nucleotide-free protein as reference

Compound | Tm [°C]
Nc1nc2c(ncn2[C@@H]2O[C@H](COP(=O)(O)OP(=O)(O)NP(=O)(O)O)[C@@H](O)[C@H]2O)c(=O)[nH]1 [GMPPNP] | 47.6
Nc1nc2c(ncn2[C@@H]2O[C@H](COP(=O)(O)CP(=O)(O)O)[C@@H](O)[C@H]2O)c(=O)[nH]1 [GMPCP] | 44.0

Source: paper PMC4509514, “Saccharomyces cerevisiae Ski7 Is a GTP-Binding Protein Adopting the Characteristic Conformation of Active Translational GTPases” (Structure(London, England:1993), 2015)
